Assay results reported in US20110251230A1, “THERAPEUTICS FOR NEUROLOGICAL DISORDERS” (UNIVERSITY OF SHEFFIELD, priority 2008, published 2011).
Where a name gives a salt, the structure may show the parent alone. Read-outs that look alike come from different tables or passages of the source.

Experiments:
[1] = tested on: NRF2-ARE pathway in the CHO 4× ARE-TK cell line; assay: ARE reporter assay in CHO 4×ARE-TK-GFP cell line (GFP induction, EthD1 toxicity); conditions: for maximal fold induction: read-out: Average fold GFP induction at maximal response
Experimental: Chinese Hamster Ovary (CHO), NSC34 mouse motor neuronal cells, C6 (rat) and 1321N1 (human) astrocytic lines were routinely maintained in DMEM supplemented with 10% FBS and penicillin/streptomycin. […] These plasmids were transfected into CHO, C6 and 1321N1 cell lines using Lipofectamine 2000 (Invitrogen) and following 10-14 days of selection in 0.5 mg/ml G418 they were expanded and selected for basal eGFP expression using fluorescence activated cell sorting (BD, FACSAria) with two sequential cell sorts for each cell line. These mixed populations of stable transfectants with basal eGFP expression were used in subsequent assays and designated 4×ARE-TK-GFP for the ARE containing line and TK-GFP for the control cell line. […]
Confluent cultures of 4×ARE-TK-GFP CHO or TK-GFP CHO expressing cells in 96 or 384-well tissue-culture plates were treated with drug (0.01-100 µM in triplicate) or vehicle (0.1-1% DMSO) in FCS-free DMEM in triplicate for 24 hours. The media was removed and replaced with the same volume of PBS containing 0.3 μM EthD1. […] Non-linear regression was used to fit a sigmoidal dose-response curve on a semi-Log plot to calculate the EC50 using GraphPad Prism (GraphPad Software). The reporter assay was conducted in a similar fashion in C6 and 1321N1 astrocyte cell lines stably transfected with the 4×ARE-TK-GFP and TK-GFP constructs except that Eth D1 was added directly in the media and read prior to washing the cells once and reading the […] signal. […]
The compounds were applied in triplicate to confluent cells in 96 well plates in serum free medium for 24 hours and the induction of GFP measured in a fluorescence plate reader. […]

[2] = tested on: NSC34 mouse motor neuronal cells
Experimental: (§1) A simple oxidative stress assay was used to determine whether preconditioning with NRF2-ARE inducing drugs could protect against a subsequent oxidative stress insult (serum withdrawal). The NSC34, C6 and 1321N1 cells were plated in 96 well tissue culture plates to achieve 30% confluency. […] Media was then replaced with serum free, phenol free media for 5 hrs. […] Cell survival assay was then performed on the cells as protection is measured as % reduction in DCF signal, therefore data points were excluded where a decrease in cell number was measured.
(§2) Briefly methylthiazolyldiphenyl-tetrazolium bromide (MTT) was added to the cells and a blank well to a final concentration 0.5 mg/ml and incubated at 37° C. for 1-3 hrs depending on the cell line used.

[3] = tested on: 1321N1 (human) astrocytic line
Experimental: as §1, §2

C6 (rat) astrocytic line [4] = tested on: C6 (rat) astrocytic line
Experimental: as §1, §2

[5] = tested on: 1321N1 (human) astrocytic line; assay: 1321N1 oxidative stress assay (serum withdrawal, DCF); conditions: for IC50: 1321N1, 24 h pre-treatment, serum withdrawal, DCF; for Lowest dose with toxicity: 1321N1; for Maximal % reduction in Oxidative stress: 1321N1, DCF fluorescence
Experimental: as §1, §2

C6 (rat) astrocytic line [6] = assay: C6 oxidative stress assay (serum withdrawal, DCF); conditions: for Lowest dose with toxicity: C6; for IC50: C6, 24 h pre-treatment, serum withdrawal, DCF; for Maximal % reduction in Oxidative stress: C6, DCF fluorescence
Experimental: as §1, §2

[7] = tested on: NSC34 mouse motor neuronal cells; assay: NSC34 oxidative stress assay (serum withdrawal, DCF); conditions: for Lowest dose with toxicity: NSC34; for Maximal % reduction in Oxidative stress: NSC34, DCF fluorescence, negative = pro-oxidant
Experimental: as §1, §2

[8] = Cricetulus griseus, 24 h, read-out: Average EC50, CHO 4×ARE-TK-GFP, GFP induction, 24 h
[9] = Cricetulus griseus, 24 h, read-out: Average EC50
[10] = read-out: Average EC50, CHO 4×ARE-TK-GFP, GFP induction, 24 h

Row | Molecule | Lowest dose with toxicity ([1]; Chinese hamster, 24 h) [µM] | maximal fold induction ([1]; Cricetulus griseus, 24 h) | IC50 [5] [µM] | Lowest dose with toxicity (C6 (rat) astrocytic line [6]) | IC50 (C6 (rat) astrocytic line [6]) [µM] | Lowest dose with toxicity [7] | Lowest dose with toxicity [5] | Lowest dose with toxicity ([1]; CHO ARE reporter assay) | Average fold GFP induction at maximal response ([1]; CHO 4×ARE-TK-GFP, 24 h) [fold] | EC50 [1, 10] [µM] | Maximal % reduction in Oxidative stress (C6 (rat) astrocytic line [6]) [%] | Maximal % reduction in Oxidative stress [7] [%] | Maximal % reduction in Oxidative stress [5] [%] | also measured
1 | CC(=O)OC1CC[C@@]2(C)C(CC[C@H]3[C@@H]4CC=C(C(C)=O)[C@@]4(C)C(=O)C[C@@H]32)C1 (stereo partly drawn) [3 acetoxypregn-16-en-12,20-dione] | 30 | 3.14 | ~12.4 |  |  |  |  |  |  |  |  |  |  | Lowest dose with toxicity [2]: none; Lowest dose with toxicity [3]: none; Lowest dose with toxicity (C6 (rat) astrocytic line [4]): none
2 | CC(COc1ccccc1)NC(C)C(O)c1ccc(O)cc1 (stereo not drawn) [Isoxsuprine hydrochloride, reference compound] | 100 | 1.52 |  | none | 23 | none | none |  |  |  |  |  |  | EC50 [1, 8]: 8.7 µM
3 | CCCCCc1c2c(cc(O)c1C(=O)O)OC(=O)c1c(cc(OC)cc1C(=O)CCCC)O2 [Lobaric acid] | 100 | 2.53 |  | none |  | none | none |  |  |  |  |  |  | 
4 | O=C(CCBr)N1CCN(C(=O)CCBr)CC1 [Pipobroman, reference compound] | 100 | 3.21 |  | none |  | none | 10 µM |  |  |  |  |  |  | 
5 | CC(C)N(C(=O)CCl)c1ccccc1 [Propachlor] | 100 | 3.25 | 0.829 |  | 0.645 |  |  |  |  |  |  |  |  | EC50 [1, 9]: 1.49 µM; Lowest dose with toxicity ([2]; mouse, 24 h): 10 µM; Lowest dose with toxicity ([3]; human, 24 h): 10 µM; Lowest dose with toxicity (C6 (rat) astrocytic line [4]; rat, 24 h): 10 µM
6 | C=C(C)/C=C1/C=CC(=O)C(C)=C1 [Retusoquinone] | 100 | 2.04 |  | none |  | none | none |  |  |  |  |  |  | EC50 [1, 8]: ~35 µM
7 | O=C1C=C2C=C[C@@H]3C[C@@]2(O1)[C@H]1CCCCN31 [Securinine] |  | 3 | 18.3 | none | 0.645 | none | none | 30 µM |  |  |  |  |  | EC50 [1, 9]: 2.12 µM
8 | CC1=CC(=O)C(C(C)C)=CC1=O [Thymoquinone] | 30 | 2.58 |  | none |  | none | none |  |  |  |  |  |  | 
9 | CC(=O)O[C@@H]1C[C@H]2C(C)(C)C(=O)C=C[C@]2(C)[C@H]2CC[C@]3(C)C(=CC(=O)O[C@H]3c3ccoc3)[C@@]21C [deoxygedunin] |  |  | 1.41 | none | 2.19 | 10 µM | 10 µM | 30 µM | 1.82 | 1.15 | 61 | 7 | 25 | 
10 | O=C(CC[N+](=O)[O-])OC[C@H]1O[C@@H](O)[C@H](OC(=O)CC[N+](=O)[O-])[C@@H](OC(=O)CC[N+](=O)[O-])[C@@H]1OC(=O)CC[N+](=O)[O-] [endecaphyllin X] |  |  |  | none | 3.15 | 10 µM | none | None | 2.15 | 18.8 | 40 | 0 | 56 | 
11 | C[C@@H]1C(=O)O[C@H]2[C@H]1CC[C@@]1(C)C=CC(=O)[C@@]3(C)O[C@@]213 [epoxy(4,5α)-4,5-dihydrosantonin] |  |  | 0.662 |  | 2.13 |  |  | 100 µM | 2.91 | 18.2 | 62 | 0 | 63 | Lowest dose with toxicity [2]: 3 µM; Lowest dose with toxicity [3]: none; Lowest dose with toxicity (C6 (rat) astrocytic line [4]): none
12 | Oc1ccc(O)cc1 [hydroquinone, reference compound] | 100 | 2.95 |  | none |  | none | none |  |  |  |  |  |  | 
13 | OC[C@H]1O[C@@H](n2cnc3c(NCc4ccco4)ncnc32)[C@H](O)[C@@H]1O [kinetin riboside] | 30 | 1.97 | 0.246 | 10 µM | 3.84 | 3 µM | 3 µM |  |  |  |  |  |  | EC50 [1, 8]: 3.39 µM
14 | CC(=O)CCC(=O)O [levulinc acid, Levulinic acid] |  | 2.94 |  | none |  | none | none |  |  |  |  |  |  | Lowest dose with toxicity [1]: None
15 | C=C(C)C(=O)C(=CC(=O)O)OC [penicillic acid] |  | 2.64 |  | none | 4.62 | none | none | 100 µM |  |  |  |  |  | EC50 [1, 9]: 14.9 µM
16 | COc1ccc2c(c1)OC/C(=C/c1ccc(OC)c(OC)c1)C2=O [sappanone A trimethyl ether] |  |  | 0.279 | none |  | none | none | 100 µM | 1.99 | 3.5 | 27 | −60 | 40 | 
17 | COC(=O)[C@H](O)[C@H]1C(C)(C)[C@H](OC(C)=O)[C@@H]2CC3=C4CC(=O)O[C@@H](c5ccoc5)[C@]4(C)CC[C@@H]3[C@@]1(C)C2=O [swietenolide 3 acetate] |  |  |  | none | 4.22 | 0.3 µM | none | 100 µM | 2.82 | 3.5 | 50 | 0 | 60 | 
18 | Euphol acetate |  |  | 18 | none |  | none | none | 100 µM | 2.20 | ~99 | 0 | −43 | 38 | 
19 | methyl-7-deshydroxypyrogallin-4-carboxylate |  |  |  | none | 2.95 | 0.3 µM | none | 100 µM | 2.83 | 2050 | 70 | −23 | 45 | 
